In patent US20140242093A1, “METHODS AND COMPOSITIONS FOR MODULATING THE INNATE IMMUNE RESPONSE AND/OR MYOGENESIS IN A MAMMALIAN SUBJECT” (FRED HUTCHINSON CANCER RESEARCH CENTER, priority 2011, published 2014):

System: control human primary myoblasts
Assay: Expression microarray of primary myoblasts transduced with lentivirus carrying DUX4-fl, DUX4-s or GFP
Experimental: Primary human myoblasts were collected and cultured as previously described (Snider et al., 2010). Primary myoblasts were maintained at or below 70% confluency for proliferation. For differentiation, cells were allowed to reach 95-100% confluency in growth medium. Once confluency was reached, the cells were changed to differentiation medium (F10 media supplemented with 1% horse serum, 10 μg/mL insulin, and 10 μg/mL transferrin, penicillin/streptomycin) and maintained for 4 days. Human RD cells were grown in DMEM in 10% bovine calf serum (Hyclone) and penicillin/streptomycin. The primary myoblasts were transduced with lentivirus carrying DUX-fl, DUX4- or GFP (MOI=15).
Expression microarrays were performed on the transduced cells at 24 hours after transduction as follows. […] Samples were analyzed by Illumina Human Whole Genome microarrays. Probe intensities were corrected, normalized, and summarized by the Lumi package of Bioconductor (Du et al., 2008). Differentially expressed genes were identified by the LIMMA package of Bioconductor (Wettenhall and Smyth, 2004). Gene set enrichment analysis (GSEA) was performed using the Bioconductor GOstats package (Falcon and Gentleman, 2007).

## DUX4-fl: full-length DUX4 protein (SEQ ID NO:110), expressed from lentiviral or pCS2 vectors or in vitro translated
log2 fc vs lenti-GFP, 24 h
  full_fc ART3: 4.363
  full_fc C6orf148: 6.759
  full_fc C12orf50: 4.522
  full_fc CA2: 6.091
  full_fc CCNA1: 7.526
  full_fc CSAG3: 5.871
  full_fc DEFB103A: 6.442
  full_fc ENTPD8: 4.073
  full_fc HBA1: 4.787
  full_fc HBA2: 4.721
  full_fc HIST2H3A: 4.945
  full_fc KHDC1L: 8.012
  full_fc LOC136157: 8.299
  full_fc LOC196120: 8.179
  full_fc LOC284428: 8.023
  full_fc LOC340096: 7.382
  full_fc LOC340970: 8.316
  full_fc LOC342900: 7.391
  full_fc LOC390031: 8.331
  full_fc LOC391742: 5.733
  full_fc LOC391764: 5.821
  full_fc LOC391766: 5.724
  full_fc LOC391767: 5.492
  full_fc LOC391769: 8.19
  full_fc LOC399939: 6.931
  full_fc LOC399940: 4.727
  full_fc LOC401860: 4.272
  full_fc LOC402199: 4.392
  full_fc LOC402207: 4.903
  full_fc LOC440040: 7.534
  full_fc LOC440563: 5.312
  full_fc LOC441584: 7.781
  full_fc LOC642127: 6.112
  full_fc LOC642148: 6.851
  full_fc LOC642219: 4.799
  full_fc LOC642362: 8.016
  full_fc LOC643263: 8.345
  full_fc LOC643445: 8.25
  full_fc LOC645558: 4.803
  full_fc LOC645669: 8.202
  full_fc LOC646066: 4.391
  full_fc LOC646103: 4.658
  full_fc LOC646698: 6.012
  full_fc LOC646754: 5.11
  full_fc LOC647827: 4.053
  full_fc LOC651308: 8.169
  full_fc LOC653192: 8.228
  full_fc LOC653656: 7.897
  full_fc LOC653657: 7.857
  full_fc LOC654101: 5.034
  full_fc LOC729368: 5.416
  full_fc LOC729384: 6.832
  full_fc LOC729458: 8.247
  full_fc LOC729516: 5.955
  full_fc LOC729694: 4.029
  full_fc LOC729700: 4.817
  full_fc LOC729706: 4.227
  full_fc LOC729731: 5.007
  full_fc LOC730974: 7.715
  full_fc LOC732393: 4.637
  full_fc LOC100131392: 6.976
  full_fc LOC100131539: 4.629
  full_fc LOC100133446: 4.635
  full_fc LOC100133984: 6.204
  full_fc LOC100134006: 7.087
  full_fc LOC100134199: 8.048
  full_fc MBD3L2: 7.623
  full_fc NP: 6.961
  full_fc NXF1: 4.233
  full_fc OR2T34: 4.519
  full_fc PPP2R2B: 4.13
  full_fc PRAMEF1: 8.072
  full_fc PRAMEF2: 6.439
  full_fc PRAMEF4: 7.06
  full_fc PRAMEF5: 7.35
  full_fc PRAMEF6: 5.826
  full_fc PRAMEF7: 7.631
  full_fc PRAMEF9: 7.131
  full_fc PRAMEF10: 6.064
  full_fc PRAMEF11: 5.94
  full_fc PRAMEF12: 7.802
  full_fc PRAMEF13: 7.422
  full_fc PRAMEF15: 7
  full_fc PRAMEF17: 4.223
  full_fc PRAMEF20: 4.795
  full_fc RFPL1: 6.264
  full_fc RFPL1S: 8.396
  full_fc RFPL2: 7.293
  full_fc RFPL3: 8.144
  full_fc RFPL4A: 4.348
  full_fc RFPL4B: 8.34
  full_fc RN5S9: 4.191
  full_fc SFRS2B: 4.215
  full_fc SLC34A2: 5.514
  full_fc SPRYD5: 8.045
  full_fc THOC4: 4.035
  full_fc TPRX1: 4.483
  full_fc TRIM43: 5.806
  full_fc TRIM48: 7.88
  full_fc TRIM49: 6.551
  full_fc TRIM53: 4.778
  full_fc TRIM64: 4.943
  full_fc ZNF217: 4.114
  full_fc ZNF296: 5.536
  full_fc ZNF705A: 6.832
  full_fc ZSCAN4: 8.322
Log 2fc≧5
  number of genes increased 32-fold or more: 72 genes
Vs lenti-GFP, 24 h
  Log2 Fc AMACR: 2.7 log2
  Log2 Fc ARIH1: 2.2 log2
  Log2 Fc ARS2: 2.6 log2
  Log2 Fc CBARA1: 2.1 log2
  Log2 Fc CD24: 2.6 log2
  Log2 Fc CSAG3: 5.9 log2
  Log2 Fc CSE1L: 2.9 log2
  Log2 Fc CWC15: 2.6 log2
  Log2 Fc CXADR: 2.5 log2
  Log2 Fc CXCR4: 2.0 log2
  Log2 Fc DBR1: 3.4 log2
  Log2 Fc DEFB103B: 6.4 log2
  Log2 Fc FBXO33: 3.2 log2
  Log2 Fc FGFR3: 3.1 log2
  Log2 Fc FLJ45337: 3.7 log2
  Log2 Fc GTF2F1: 3.2 log2
  Log2 Fc HNRNPCL1: 3.5 log2
  Log2 Fc HOXB2: 2.2 log2
  Log2 Fc HSPA2: 3.7 log2
  Log2 Fc ID2: 2.3 log2
  Log2 Fc IFRD1: 3.0 log2
  Log2 Fc JUP: 3.2 log2
  Log2 Fc KHDC1L: 8.0 log2
  Log2 Fc MBD3L2: 7.6 log2
  Log2 Fc MED26: 2.1 log2
  Log2 Fc MGC10997: 2.4 log2
  Log2 Fc PABPN1: 2.6 log2
  Log2 Fc PELI1: 2.9 log2
  Log2 Fc PNMA6B: 3.6 log2
  Log2 Fc PRAMEF1: 8.1 log2
  Log2 Fc PVRL3: 2.2 log2
  Log2 Fc RMRP: 2.3 log2
  Log2 Fc RNGTT: 2.0 log2
  Log2 Fc RPPH1: 2.0 log2
  Log2 Fc RRN3: 2.1 log2
  Log2 Fc SFRS2B: 4.2 log2
  Log2 Fc SFRS17A: 2.5 log2
  Log2 Fc SIAH1: 3.7 log2
  Log2 Fc SLC2A14: 2.4 log2
  Log2 Fc SLC34A2: 5.5 log2
  Log2 Fc SNIP1: 2.1 log2
  Log2 Fc SON: 2.1 log2
  Log2 Fc SPRYD5: 8.0 log2
  Log2 Fc SPTY2D1: 3.3 log2
  Log2 Fc TFIP11: 3.2 log2
  Log2 Fc THOC4: 4.0 log2
  Log2 Fc TPRX1: 4.5 log2
  Log2 Fc TRIM23: 2.2 log2
  Log2 Fc TRIM43: 5.8 log2
  Log2 Fc USP29: 2.6 log2
  Log2 Fc ZNF217: 4.1 log2
  Log2 Fc ZNF705A: 6.8 log2
  Log2 Fc ZNHIT6: 3.5 log2
  Log2 Fc ZSCAN2: 2.2 log2
  Log2 Fc ZSCAN4: 8.3 log2
